Measurements reported in patent US20050074810A1, “Method for non-invasilvely determining the relative levels of two biological substances” (priority 2001, published 2005).
Where two headings read alike, the source gives them in different places.

Columns and labels:
[1] = subdermal lactate 1.74 mM, ammonium 1.56 mM
Description: Experiments were performed in specially-designed iontophoresis diffusion cells (Laboratory Glass Apparatus, Berkeley, Calif., USA) as represented in FIG. 7.
The anodal and cathodal chambers contacted the outer surface of the skin and contained the receptor (collection) media, respectively, 80 mM Tris/TrisHCl and 25 mM Tris+34 mM Mops (both buffered to pH 7.4).
Dermatomed pig-ear skin was clamped between the two halves of the iontophoresis cell and each chamber was filled with the appropriate solution.
The sub-dermal chamber was filled with the “donor solution which was perfused continuously at 2-3 mL/hour by means of a peristaltic pump.
A current of 0.4 mA (0.5 mA/cm^2) was passed for a total of 5 hours between the Ag/AgCl electrodes which were inserted into the anodal and cathodal chambers.
Every hour, the entire anode and cathode solutions were withdrawn and the chambers were refilled with fresh buffer.

[2] = in vivo, 4 mA for 5 minutes, 4.5 cm^2, lithium nitrate electrolyte; cited from earlier work

SMILES | Deduced transport number (×100) ([1]; 3 h) | K for analyte/internal standard couple, internal standard Na^+ ([1]; 3 h) | Deduced transport number (×100) ([1]; 5 h) | K for analyte/internal standard couple, internal standard Na^+ ([1]; 5 h) | Concentration in the cathode chamber after current passage [2]
N [Ammonium, ammonium] | 1.36 ± 0.09 ×100 | 1.71 ± 0.09 | 1.44 ± 0.03 ×100 | 1.71 ± 0.01 | 
[K+] [K^+, potassium] |  |  |  |  | about 14 μEq/L
